Biological target: FAS (Homo sapiens, UniProt P49327)
Assay: FAS assay (Assay #1: residual NADPH detection, or Assay #2: CoA detection with thio-reactive coumarin dye)
Assay type: biochemical
Settings: average IC50, each compound tested two or more times; FAS activity measured through one of the two assays
Experimental: FAS Activity was Measured Through One of the Two Following Assays.
Inhibition of FAS activity can be measured based on the detection of residual NADPH substrate after the FAS assay is quenched. This assay is run as a 10 μL endpoint assay in 384-well format, where the reaction contains 20 μM malonyl-CoA, 2 μM acetyl-CoA, 30 μM NADPH and 40 nM FAS in 50 mM sodium phosphate, pH 7.0. The assay is run by sequentially dispensing 5 ul of a malonyl-CoA solution, then enzyme solution (containing the acetyl-CoA, and NADPH) into a black, low volume assay plate (Greiner 784076) pre-dispensed with […] compound solutions in DMSO. The reaction is incubated at ambient temperature for 60 minutes, then quenched with 5 μL of a developing solution composed of 90 μM resazurin, 0.3 IU/ml diaphorase in 50 mM sodium phosphate, pH 7.0. The developed reaction is read on a Molecular Devices Analyst or Acquest (or equivalent) plate reader using a 530 nm excitation wavelength filter, a 580 nm emission filter, and 561 nm dichroic filter. The test compounds are prepared in neat DMSO at a concentration of 10 mM. For inhibition curves, compounds are diluted using a three fold serial dilution and tested at 11 concentrations (e.g. 25 μM-0.42 nM). Curves are analysed using ActivityBase and XLfit, and results are expressed as pIC50 values.
Inhibition of FAS can also be quantified based on the detection of the CoA products with a thio-reactive coumarin dye. This assay is run as a 10 μL endpoint assay in 384-well format, where the reaction contains 20 μM malonyl-CoA, 20 μM acetyl-CoA, 40 μM NADPH and 2 nM FAS in 50 mM sodium phosphate, pH 7.0, and 0.04% Tween-20. The assay is run by adding 5 μL enzyme solution to a black, low volume assay plate (Greiner 784076) pre-dispensed with 100 nl compound solutions in DMSO. After 30 minutes, 5 μL substrate is added, and the reaction incubated at ambient temperature for an additional 60 minutes. The reaction is then quenched with 10 μL of 6M guanidine-HCl containing 50 μM CPM (7-diethylamino-3-(4′-maleimidylphenyl)-4-methylcoumarin (CPM; thio-reactive dye), and incubated for 30 minutes. The plate is read on an Envision (PerkinElmer) or equivalent plate reader using a 380 nm excitation wavelength filter, and a 486 nm emission filter. Data fitting and compound preparations are done as described above.

Sequence of FAS (P49327 whole entry): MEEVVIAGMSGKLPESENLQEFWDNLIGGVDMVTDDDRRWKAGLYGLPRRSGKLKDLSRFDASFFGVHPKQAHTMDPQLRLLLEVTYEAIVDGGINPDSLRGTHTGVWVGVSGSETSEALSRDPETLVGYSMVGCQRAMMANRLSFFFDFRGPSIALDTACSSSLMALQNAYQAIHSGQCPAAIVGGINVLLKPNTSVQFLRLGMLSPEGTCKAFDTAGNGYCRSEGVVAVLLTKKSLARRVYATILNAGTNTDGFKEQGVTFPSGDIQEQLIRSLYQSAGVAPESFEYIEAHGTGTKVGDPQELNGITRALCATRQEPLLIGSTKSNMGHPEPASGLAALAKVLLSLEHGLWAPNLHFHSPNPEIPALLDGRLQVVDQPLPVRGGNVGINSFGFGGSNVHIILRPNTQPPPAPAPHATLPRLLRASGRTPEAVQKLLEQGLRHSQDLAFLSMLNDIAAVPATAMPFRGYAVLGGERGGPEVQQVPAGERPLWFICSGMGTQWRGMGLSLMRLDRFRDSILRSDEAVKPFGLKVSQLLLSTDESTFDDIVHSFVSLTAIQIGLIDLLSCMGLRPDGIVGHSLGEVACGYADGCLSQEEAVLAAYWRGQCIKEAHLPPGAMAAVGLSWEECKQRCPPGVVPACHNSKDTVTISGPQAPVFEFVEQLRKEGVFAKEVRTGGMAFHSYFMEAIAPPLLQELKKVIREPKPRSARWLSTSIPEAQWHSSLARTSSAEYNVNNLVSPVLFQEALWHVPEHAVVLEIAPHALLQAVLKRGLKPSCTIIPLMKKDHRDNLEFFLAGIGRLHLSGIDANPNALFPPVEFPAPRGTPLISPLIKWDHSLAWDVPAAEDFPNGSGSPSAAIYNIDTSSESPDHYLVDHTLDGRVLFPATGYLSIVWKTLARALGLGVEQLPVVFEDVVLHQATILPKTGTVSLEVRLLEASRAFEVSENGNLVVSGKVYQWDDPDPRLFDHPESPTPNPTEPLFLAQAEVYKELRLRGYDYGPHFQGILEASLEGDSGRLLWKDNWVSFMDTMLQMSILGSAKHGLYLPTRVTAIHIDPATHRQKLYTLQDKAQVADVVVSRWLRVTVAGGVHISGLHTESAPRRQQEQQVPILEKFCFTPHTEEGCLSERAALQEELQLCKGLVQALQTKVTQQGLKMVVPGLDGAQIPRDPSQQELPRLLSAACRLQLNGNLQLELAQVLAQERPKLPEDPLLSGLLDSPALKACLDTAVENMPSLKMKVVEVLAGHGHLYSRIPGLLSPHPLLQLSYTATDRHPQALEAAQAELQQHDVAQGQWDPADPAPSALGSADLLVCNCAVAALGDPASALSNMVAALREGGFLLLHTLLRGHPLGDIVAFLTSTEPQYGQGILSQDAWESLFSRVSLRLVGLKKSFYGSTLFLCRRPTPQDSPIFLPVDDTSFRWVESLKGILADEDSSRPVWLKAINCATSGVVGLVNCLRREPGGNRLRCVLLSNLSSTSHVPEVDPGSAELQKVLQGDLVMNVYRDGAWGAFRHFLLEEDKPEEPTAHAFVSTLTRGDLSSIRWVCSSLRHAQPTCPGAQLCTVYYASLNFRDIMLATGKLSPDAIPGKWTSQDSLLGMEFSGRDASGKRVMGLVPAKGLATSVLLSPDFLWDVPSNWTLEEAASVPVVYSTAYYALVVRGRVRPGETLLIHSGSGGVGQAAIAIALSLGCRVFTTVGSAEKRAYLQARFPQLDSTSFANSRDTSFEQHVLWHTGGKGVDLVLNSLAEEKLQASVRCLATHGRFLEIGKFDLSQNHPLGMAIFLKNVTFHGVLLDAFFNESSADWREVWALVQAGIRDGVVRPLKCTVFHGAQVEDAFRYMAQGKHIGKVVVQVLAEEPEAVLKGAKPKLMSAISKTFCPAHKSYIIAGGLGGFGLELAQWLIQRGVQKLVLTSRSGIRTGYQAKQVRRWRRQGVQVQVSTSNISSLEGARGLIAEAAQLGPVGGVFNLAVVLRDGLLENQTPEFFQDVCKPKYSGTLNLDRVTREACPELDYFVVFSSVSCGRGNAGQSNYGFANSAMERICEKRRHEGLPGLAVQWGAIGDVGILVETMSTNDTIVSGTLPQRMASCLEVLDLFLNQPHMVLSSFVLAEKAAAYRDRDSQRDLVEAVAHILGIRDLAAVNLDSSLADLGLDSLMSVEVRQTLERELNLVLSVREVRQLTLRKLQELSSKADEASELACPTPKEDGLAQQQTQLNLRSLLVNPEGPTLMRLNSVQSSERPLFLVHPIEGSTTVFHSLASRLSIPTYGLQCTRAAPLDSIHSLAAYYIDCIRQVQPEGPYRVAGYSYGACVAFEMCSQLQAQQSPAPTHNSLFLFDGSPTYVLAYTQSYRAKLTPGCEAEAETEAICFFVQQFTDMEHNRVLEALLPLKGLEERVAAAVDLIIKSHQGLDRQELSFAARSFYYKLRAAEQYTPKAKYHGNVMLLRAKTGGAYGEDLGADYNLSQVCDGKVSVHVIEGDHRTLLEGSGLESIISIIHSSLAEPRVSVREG

Structure (SMILES)	IC50 [nM]
Cn1ncc2c(=O)n(C[C@@H]3CCN(C(=O)C4CC4)C3)c(-c3ccc(-c4ccc5[nH]ccc5c4)cc3)nc21 [Example 1, 5-{[(3R)-1-(cyclopropylcarbonyl)-3-pyrrolidinyl]methyl}-6-[4-(1H-indol-5-yl)phenyl]-1-methyl-1,5-dihydro-4H-pyrazolo[3,4-d]pyrimidin-4-one]	7.9
Cc1nc2c(=O)n(C[C@@H]3CCN(C(=O)C4CC4)C3)c(-c3ccc(-c4ccc5[nH]ncc5c4)cc3)nc2o1 [Example 11, 6-{[(3R)-1-(cyclopropylcarbonyl)-3-pyrrolidinyl]methyl}-5-[4-(1H-indazol-5-yl)phenyl]-2-methyl[1,3]oxazolo[5,4-d]pyrimidin-7(6H)-one]	25.1
COc1ccc(-c2ccc(-c3nc4ccccc4c(=O)n3C[C@@H]3CCN(C(=O)C4CC4)C3)cc2)c(Cl)c1 [Example 24, 2-[2-chloro-4(methoxy)-4-bipheny]-3-{[(3R)-1-(cyclopropylcarbonyl)-3-pyrrolidinyl]methyl}-4(3H)-quinazolinone]	200
Cc1cc(=O)n(C[C@@H]2CCN(C(=O)C3CC3)C2)c(-c2ccc(-c3ccc4[nH]ccc4c3)cc2)n1 [Example 26]	3.16
Cc1cc(=O)n(-c2ccc(-c3ccc4cc[nH]c4c3)cc2)c(C[C@@H]2CCN(C(=O)C3CC3)C2)n1 [Example 47, 2-{[(3S)-1-(cyclopropylcarbonyl)-3-pyrrolidinyl]methyl}-1-[4-(1H-indol-6-yl)phenyl]-6-methyl-4(3H)-pyrimidinone]	10
Cc1cc(=O)nc(C[C@@H]2CCN(C(=O)C3CC3)C2)n1-c1ccc(-c2ccc3occc3c2)cc1 [Example 49, 1-[4-(1-benzofuran-5-yl)phenyl]-2-{[(3S)-1-(cyclopropylcarbonyl)-3-pyrrolidinyl]methyl}-6-methyl-4(1H)-pyrimidinone]	3160

Reference: patent US20130303551A1, “PYRIMIDINONE DERIVATIVES AS FATTY ACID SYNTHASE INHIBITORS” (priority 2011, published 2013)
